According to the supplement of paper PMC10307832:

Key:
Test in all cases: relative viability (nuclei count vs DMSO), 5 days (fraction); higher = more cells survive
NCI-H520 = test system: NCI-H520
Summary of the method: (§1)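 For relative viability, nuclei counts in treated wells were divided by those in vehicle wells. Lung cancer cell lines had been pin-tool dosed in 1536-well plates the day after seeding and cultured for 5 days, then fixed and stained in one step (final 0.05% Triton X-100, 1% formaldehyde, 1 ug/ml Hoechst) and imaged at 4×. Doses were one drug alone or a fixed anchor-drug dose plus five library-drug doses (not always all listed) in √10 steps, and values are duplicate-plate medians.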

NCI-H1648 = test system: NCI-H1648
Summary of the method: as §1

NCI-H727 = test system: NCI-H727
Summary of the method: as §1

NCI-H1623 = test system: NCI-H1623
Summary of the method: as §1

NCI-H2170 = test system: NCI-H2170
Summary of the method: as §1

NCI-H2023 = test system: NCI-H2023
Summary of the method: as §1

IA-LM = test system: IA-LM
Summary of the method: as §1

Calu-6 = test system: Calu-6
Summary of the method: as §1

A549 = test system: A549
Summary of the method: as §1

NCI-H1299 = test system: NCI-H1299
Summary of the method: as §1

EBC-1 = test system: EBC-1
Summary of the method: as §1

NCI-H1703 = test system: NCI-H1703
Summary of the method: as §1

`CCNC(=O)c1noc(-c2cc(C(C)C)c(O)cc2O)c1-c1ccc(CN2CCOCC2)cc1` [Luminespib] + Cc1cc(Nc2cc(N3CCN(C)CC3)nc(Sc3ccc(NC(=O)C4CC4)cc3)n2)n[nH]1 [Tozasertib] (partner 0.1 µM) showed a relative viability (NCI-H520; first compound 0.002 µM) of 0.404, a relative viability (NCI-H520; first compound 0.006325 µM) of 0.449 and a relative viability (NCI-H520; first compound 0.02 µM) of 0.345. The relative viability (NCI-H520; first compound 0.06325 µM) was 0.195, the relative viability (NCI-H520; first compound 0.2 µM) was 0.221 and the relative viability (NCI-H1648; first compound 0.006325 µM) was 0.373. For the same compound, the relative viability (NCI-H1648; first compound 0.02 µM) was 0.362, the relative viability (NCI-H1648; first compound 0.06325 µM) was 0.578 and the relative viability (NCI-H1648; first compound 0.2 µM) was 0.262. The relative viability (NCI-H727; first compound 0.002 µM) was 0.61, the relative viability (NCI-H727; first compound 0.006325 µM) was 0.614 and the relative viability (NCI-H727; first compound 0.02 µM) was 0.505. The relative viability (NCI-H727; first compound 0.06325 µM) was 0.314, the relative viability (NCI-H727; first compound 0.2 µM) was 0.291 and the relative viability (NCI-H1623; first compound 0.002 µM) was 0.398. It also gave a relative viability (NCI-H1623; first compound 0.006325 µM) of 0.415, a relative viability (NCI-H1623; first compound 0.02 µM) of 0.386 and a relative viability (NCI-H1623; first compound 0.06325 µM) of 0.306. For the same compound, the relative viability (NCI-H1623; first compound 0.2 µM) was 0.297, the relative viability (NCI-H2170; first compound 0.002 µM) was 0.72 and the relative viability (NCI-H2170; first compound 0.006325 µM) was 0.737. The relative viability (NCI-H2170; first compound 0.02 µM) was 0.398, the relative viability (NCI-H2170; first compound 0.06325 µM) was 0.299 and the relative viability (NCI-H2170; first compound 0.2 µM) was 0.158. For the same compound, the relative viability (NCI-H2023; first compound 0.002 µM) was 0.395, the relative viability (NCI-H2023; first compound 0.006325 µM) was 0.389 and the relative viability (NCI-H2023; first compound 0.02 µM) was 0.343. It also gave a relative viability (NCI-H2023; first compound 0.06325 µM) of 0.0657 and a relative viability (NCI-H2023; first compound 0.2 µM) of 0.0748.
Work on `Cc1csc(=NC2CCCCC2)n1/N=C/c1ccc(O)c(O)c1O` [MIM1] + COc1cccc2cc(-c3nc([C@H]4CC[C@H](C(=O)O)CC4)n4ncnc(N)c34)[nH]c12 [OSI-027] (partner 0.5 µM) yielded a relative viability (NCI-H520; first compound 0.2 µM) of 0.245, a relative viability (NCI-H520; first compound 0.6325 µM) of 0.22 and a relative viability (NCI-H520; first compound 2 µM) of 0.249. The relative viability (NCI-H520; first compound 6.325 µM) was 0.24, the relative viability (NCI-H520; first compound 20 µM) was 0.25 and the relative viability (NCI-H1648; first compound 0.2 µM) was 0.246. It also gave a relative viability (NCI-H1648; first compound 0.6325 µM) of 0.272, a relative viability (NCI-H1648; first compound 2 µM) of 0.28 and a relative viability (NCI-H1648; first compound 6.325 µM) of 0.275. It also gave a relative viability (NCI-H1648; first compound 20 µM) of 0.226, a relative viability (NCI-H727; first compound 0.2 µM) of 0.619 and a relative viability (NCI-H727; first compound 0.6325 µM) of 0.712. The relative viability (NCI-H727; first compound 2 µM) was 0.599, the relative viability (NCI-H727; first compound 6.325 µM) was 0.552 and the relative viability (NCI-H727; first compound 20 µM) was 0.338. The relative viability (NCI-H1623; first compound 0.2 µM) was 0.435, the relative viability (NCI-H1623; first compound 0.6325 µM) was 0.416 and the relative viability (NCI-H1623; first compound 2 µM) was 0.412. It also gave a relative viability (NCI-H1623; first compound 6.325 µM) of 0.36, a relative viability (NCI-H1623; first compound 20 µM) of 0.383 and a relative viability (NCI-H2170; first compound 0.2 µM) of 0.714. It also gave a relative viability (NCI-H2170; first compound 0.6325 µM) of 0.595, a relative viability (NCI-H2170; first compound 2 µM) of 0.637 and a relative viability (NCI-H2170; first compound 6.325 µM) of 0.461. It also gave a relative viability (NCI-H2170; first compound 20 µM) of 0.2, a relative viability (NCI-H2023; first compound 0.2 µM) of 0.422 and a relative viability (NCI-H2023; first compound 0.6325 µM) of 0.501. The relative viability (NCI-H2023; first compound 2 µM) was 0.305, the relative viability (NCI-H2023; first compound 6.325 µM) was 0.182 and the relative viability (NCI-H2023; first compound 20 µM) was 0.0588.
Compound `Cc1csc(=NC2CCCCC2)n1/N=C/c1ccc(O)c(O)c1O` [MIM1] + COc1cc2c(Oc3ccc(NC(=O)C4(C(=O)Nc5ccc(F)cc5)CC4)cc3F)ccnc2cc1OCCCN1CCOCC1 [Foretinib] (partner 0.25 µM) has a relative viability (IA-LM; first compound 0.2 µM) of 1.11, a relative viability (IA-LM; first compound 0.6325 µM) of 1.29 and a relative viability (IA-LM; first compound 2 µM) of 1.28. The relative viability (IA-LM; first compound 6.325 µM) was 0.842, the relative viability (IA-LM; first compound 20 µM) was 0.476 and the relative viability (Calu-6; first compound 0.2 µM) was 0.847. The relative viability (Calu-6; first compound 0.6325 µM) was 0.894, the relative viability (Calu-6; first compound 2 µM) was 0.816 and the relative viability (Calu-6; first compound 6.325 µM) was 0.797. It also gave a relative viability (Calu-6; first compound 20 µM) of 0.318, a relative viability (NCI-H520; first compound 0.2 µM) of 0.635 and a relative viability (NCI-H520; first compound 0.6325 µM) of 0.728. For the same compound, the relative viability (NCI-H520; first compound 2 µM) was 0.587, the relative viability (NCI-H520; first compound 6.325 µM) was 0.646 and the relative viability (NCI-H520; first compound 20 µM) was 0.501. The relative viability (NCI-H727; first compound 0.2 µM) was 0.948, the relative viability (NCI-H727; first compound 0.6325 µM) was 0.883 and the relative viability (NCI-H727; first compound 2 µM) was 0.732. The relative viability (NCI-H727; first compound 6.325 µM) was 0.968, the relative viability (NCI-H727; first compound 20 µM) was 0.439 and the relative viability (NCI-H1623; first compound 0.2 µM) was 0.88. The relative viability (NCI-H1623; first compound 0.6325 µM) was 0.721, the relative viability (NCI-H1623; first compound 2 µM) was 0.914 and the relative viability (NCI-H1623; first compound 6.325 µM) was 0.718. It also gave a relative viability (NCI-H1623; first compound 20 µM) of 0.409, a relative viability (NCI-H2170; first compound 0.2 µM) of 0.979 and a relative viability (NCI-H2170; first compound 0.6325 µM) of 1.01. For the same compound, the relative viability (NCI-H2170; first compound 2 µM) was 0.824, the relative viability (NCI-H2170; first compound 6.325 µM) was 0.77 and the relative viability (NCI-H2170; first compound 20 µM) was 0.295. The relative viability (NCI-H2023; first compound 0.2 µM) was 0.691, the relative viability (NCI-H2023; first compound 0.6325 µM) was 0.941 and the relative viability (NCI-H2023; first compound 2 µM) was 0.7. The relative viability (NCI-H2023; first compound 6.325 µM) was 0.599, the relative viability (NCI-H2023; first compound 20 µM) was 0.453 and the relative viability (A549; first compound 0.2 µM) was 0.917. For the same compound, the relative viability (A549; first compound 0.6325 µM) was 0.939, the relative viability (A549; first compound 2 µM) was 1.02 and the relative viability (A549; first compound 6.325 µM) was 0.771. It also gave a relative viability (A549; first compound 20 µM) of 0.144, a relative viability (NCI-H1299; first compound 0.2 µM) of 1.15 and a relative viability (NCI-H1299; first compound 0.6325 µM) of 1.09. It also gave a relative viability (NCI-H1299; first compound 2 µM) of 1.14, a relative viability (NCI-H1299; first compound 6.325 µM) of 1.06 and a relative viability (NCI-H1299; first compound 20 µM) of 1.06. For the same compound, the relative viability (EBC-1; first compound 0.2 µM) was 0.108, the relative viability (EBC-1; first compound 0.6325 µM) was 0.102 and the relative viability (EBC-1; first compound 2 µM) was 0.119. The relative viability (EBC-1; first compound 6.325 µM) was 0.106, the relative viability (EBC-1; first compound 20 µM) was 0.119 and the relative viability (NCI-H1703; first compound 0.2 µM) was 0.417. It also gave a relative viability (NCI-H1703; first compound 0.6325 µM) of 0.391, a relative viability (NCI-H1703; first compound 2 µM) of 0.375 and a relative viability (NCI-H1703; first compound 6.325 µM) of 0.296. For the same compound, the relative viability (NCI-H1703; first compound 20 µM) was 0.181.
